How the values were obtained:
[1] = system: U-87 MG human glioblastoma; test: U87 MG CCK-8 proliferation assay; format: cell-based; conditions: Homo sapiens, U-87 MG, 72 h, U-87 MG cells, read-out: U87MG CCK-8
Summary of the method: (§1)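 CCK-8 absorbance read-out, with inhibition expressed against DMSO-treated cells after subtracting a cell-free DMSO medium blank. Compounds tested over a 3-fold dilution series spanning 20 μM to 1.02 nM; lines grown essentially as ATCC recommends.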

HSP90α protein [2] = biological target: T1, HSP90α protein (Homo sapiens, UniProt P07900); test: HSP90α-binding FP (BODIPY) assay; conditions: FP competition with BODIPY-labeled RNK04010
T1 construct: purchased BPS Bioscience #50298
Summary of the method: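 Fluorescence polarization measured competition with N-terminal human HSP90α, using either FITC-geldanamycin or BODIPY-labelled triazolone RNK04010 as tracer (5 nM final each). Compounds were tested in 2.5-fold dilutions from 20 μM to 5.2 nM, with incubation at 25 °C for 120 min (FITC) or 300 min (BODIPY).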

MAPK7 [3] = biological target: T2, MAPK7 (Homo sapiens, UniProt Q13164); test: MAPK7 kinase assay (ADP-Glo); format: biochemical; design: purchased Carna Biosciences #04-146; conditions: ATP 340 μM
Protocol: The inhibition of MAPK7 kinase activity by test compounds was measured by the ADP-Glo Kinase Assay (Promega, #V6930), following the manufacturer's instructions, except as noted. 3-fold serial dilutions of each test compound were prepared ranging from 50 μM to 2.54 nM. Also, as a positive control, a 4-fold serial dilution of the MAPK7 inhibitor, XMD17-109 (MedChemExpress, #HY-15665) was prepared ranging from 10 μM to 0.04 nM. In brief, in 384-well plates, test compounds were added to the kinase reaction mix containing recombinant MAPK7 protein (Carna Biosciences, #04-146; 20 nM final concentration), myelin basic protein (SignalChem Biotech, #M42-54G; 0.1 mg/ml final concentration) and ATP (340 μM final concentration), then mixed by shaking and incubated with ADP-Glo Reagent and Kinase Detection Reagent. Luminescence was measured on a BioTek plate reader.
Lumpositive: The average ratio for 10 wells of positive controls (10 μM XMD17-109) across the plate.
Lumvehicle: The average ratio for 10 wells of negative controls (0.5% DMSO) across the plate.

MAPK7 [4] = biological target: T2, MAPK7; test: MAPK7 Western blot protein degradation assay in U-87 MG cells; format: cell-based; design: U-87 MG human glioblastoma cells, which express MAPK7; endogenous in cells; host or cells: U-87 MG; conditions: 48 hr
Summary of the method: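 U-87 MG glioblastoma cells treated with compounds at various concentrations for 48 h at 37 °C. MAPK7 (ERK5) levels in protein-normalized lysates measured by Western blot with β-actin as loading reference, quantified by fluorescence imaging.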

ERBB2 = ERBB2 (HER2) flow cytometry protein degradation assay in BT-474 cells; format: cell-based, human; conditions: DC50, BT-474 cells, 24 hr
Summary of the method: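 BT-474 cells trypsinised after compound treatment and stained with PE-conjugated anti-ERBB2 antibody, 30 min at 25° C in the dark, then fixed in 1% paraformaldehyde for flow cytometry. % inhibition = 100−(D−B)/(S−B)*100, using treated, untreated-stained and unstained cell fluorescence.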

[5] = system: MV-4-11 human acute myeloid leukemia; test: MV-4-11 CCK-8 proliferation assay; format: cell-based; conditions: Homo sapiens, MV4-11; MV-4-11 cells, 72 hr
Summary of the method: as §1

[6] = system: MDA-MB-231 human breast adenocarcinoma; test: MDA-MB-231 CCK-8 proliferation assay; format: cell-based; conditions: MDA-MB-231 cells, 72 hr
Protocol: (§2) The following cancer cell lines were employed: A549 human lung carcinoma (ATCC, #CCL-185); BT-474 human breast carcinoma (ATCC, #HTB-20); MDA-MB-231 human breast adenocarcinoma (ATCC, #CRM−HTB-26); MDA-MB-468 human breast adenocarcinoma (ATCC, #HTB-132); MV-4-11 human acute myeloid leukemia (ATCC, #CRL-9591); and U-87 MG human glioblastoma (ATCC, #HTB-14). Cell lines were cultured essentially according to ATCC recommendations.
(§3) 3-fold serial dilutions of each test compound were prepared ranging from 20 μM to 1.02 nM.
(§4) % Inhibition=100−(D−B)/(S−B)*100%. • S: Absorbance of cells treated with DMSO • D: Absorbance of compound-treated cells • B: Absorbance of medium with DMSO without cells

[7] = system: MDA-MB-468 human breast adenocarcinoma; test: MDA-MB-468 CCK-8 proliferation assay; format: cell-based; conditions: MDA-MB-468 cells, 72 hr
Protocol: as §2, §3, §4

HSP90α protein [8] = biological target: T1, HSP90α protein; test: HSP90α-binding FP (FITC) assay; conditions: FP competition with FITC-geldanamycin
Protocol: Binding of test compounds to HSP90α protein was measured by fluorescent polarization (FP) using the HSP90α (N-terminal) Assay Kit (BPS Bioscience, #50298), following the manufacturer's instructions, except as noted. Fluorescently labeled HSP90-binding compounds, either the provided FITC-geldanamycin (5 nM final concentration) or RNK04010, a triazolone-based HSP90 binding small molecule labeled with BODIPY through a piperazine-phenyl linker (5 nM final concentration) were employed. A 2.5-fold serial dilution of each test compound ranging from 20 μM to 5.2 nM was assayed for binding to HSP90α. After the final step of adding HSP90α protein to each assay well, plates were mixed by brief shaking, incubated at 25° C. for 120 min for FITC-geldanamycin or 300 min for RNK04010, and fluorescence was measured using a PerkinElmer EnVision Plate Reader.

T2 sequence (Q13164 whole entry): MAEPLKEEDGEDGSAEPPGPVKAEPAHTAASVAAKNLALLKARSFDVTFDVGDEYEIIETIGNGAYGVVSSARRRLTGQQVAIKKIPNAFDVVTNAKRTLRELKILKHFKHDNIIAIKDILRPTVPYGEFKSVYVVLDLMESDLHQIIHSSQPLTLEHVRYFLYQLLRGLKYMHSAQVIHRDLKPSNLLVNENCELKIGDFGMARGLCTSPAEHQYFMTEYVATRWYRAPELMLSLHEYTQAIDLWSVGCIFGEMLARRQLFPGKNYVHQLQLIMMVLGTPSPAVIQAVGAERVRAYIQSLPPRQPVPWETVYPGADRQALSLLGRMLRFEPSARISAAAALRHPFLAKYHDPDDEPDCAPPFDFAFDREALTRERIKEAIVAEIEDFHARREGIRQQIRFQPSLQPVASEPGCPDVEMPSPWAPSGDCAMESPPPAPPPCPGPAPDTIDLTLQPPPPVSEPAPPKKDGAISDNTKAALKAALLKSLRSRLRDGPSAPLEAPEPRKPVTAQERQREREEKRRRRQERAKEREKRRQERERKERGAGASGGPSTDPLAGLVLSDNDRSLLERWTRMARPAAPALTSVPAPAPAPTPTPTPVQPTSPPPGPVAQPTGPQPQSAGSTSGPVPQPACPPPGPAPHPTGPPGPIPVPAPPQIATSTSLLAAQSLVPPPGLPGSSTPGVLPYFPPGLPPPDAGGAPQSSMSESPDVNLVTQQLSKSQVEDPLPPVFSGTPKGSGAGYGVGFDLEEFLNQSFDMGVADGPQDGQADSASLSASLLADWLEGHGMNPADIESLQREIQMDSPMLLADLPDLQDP

Structure (SMILES)	EC50 [1]	IC50 (HSP90α protein [2])	IC50 (MAPK7 [3])	MAPK7 degradation (30 nM) (MAPK7 [4])	MAPK7 degradation (100 nM) (MAPK7 [4])	MAPK7 degradation (1000 nM) (MAPK7 [4])	ERBB2 degradation (ERBB2)	EC50 [5]	MAPK7 degradation (300 nM) (MAPK7 [4]; 300 nM)	EC50 [6]	EC50 [7]	IC50 (HSP90α protein [8])
CCOc1cc(N2CCC(C(=O)N3CCN(Cc4ccc(-n5c(O)nnc5-c5cc(C(C)C)c(O)cc5O)cc4)CC3)CC2)ccc1Nc1ncc2c(n1)N(C)c1ccccc1C(=O)N2C [Compound 024, 2-((4-(4-(4-(4-(3-(2,4-dihydroxy-5-isopropylphenyl)-5-hydroxy-4H-1,2,4-triazol-4-yl)benzyl)piperazine-1-carbonyl)piperidin-1-yl)-2-ethoxyphenyl)amino)-5,11-dimethyl-5,11-dihydro-6H-benzo[e]pyrimido[5,4-b][1,4]diazepin-6-one]	< 100 nM	100 to 1000 nM	> 1000 nM	C (< 33% degradation)	B (33-66% degradation)	A (>66% degradation)	B (DC50 = 100-1000 nM)	< 100 nM	–	–	–	–
CCOc1cc(N2CCC(C(=O)N3CCC(CN4CCN(Cc5ccc(-n6c(O)nnc6-c6cc(C(C)C)c(O)cc6O)cc5)CC4)CC3)CC2)ccc1Nc1ncc2c(n1)N(C)c1ccccc1C(=O)N2C.Cl [Compound 032, 2-((4-(4-(4-((4-(4-(3-(2,4-dihydroxy-5-isopropylphenyl)-5-hydroxy-4H-1,2,4-triazol-4-yl)benzyl)piperazin-1-yl)methyl)piperidine-1-carbonyl)piperidin-1-yl)-2-ethoxyphenyl)amino)-5,11-dimethyl-5,11-dihydro-6H-benzo[e]pyrimido[5,4-b][1,4]diazepin-6-one]	100 to 1000 nM	< 100 nM	> 1000 nM	C (< 33% degradation)	B (33-66% degradation)	A (>66% degradation)	B (DC50 = 100-1000 nM)	< 100 nM	A (>66% degradation)	–	–	–
CCOc1cc(N2CCC(C(=O)N3CCN(Cc4ccc(-n5c(O)nnc5-c5cc(CC)c(O)cc5O)cc4)CC3)CC2)ccc1Nc1ncc2c(n1)N(C)c1ccccc1C(=O)N2C [Compound 049, 2-((2-ethoxy-4-(4-(4-(4-(3-(5-ethyl-2,4-dihydroxyphenyl)-5-hydroxy-4H-1,2,4-triazol-4-yl)benzyl)piperazine-1-carbonyl)piperidin-1-yl)phenyl)amino)-5,11-dimethyl-5,11-dihydro-6H-benzo[e]pyrimido[5,4-b][1,4]diazepin-6-one]	100 to 1000 nM	100 to 1000 nM	–	–	–	–	–	< 100 nM	–	< 100 nM	< 100 nM	–
CCOc1cc(N2CCC(C(=O)N3CCC(CN4CCN(Cc5ccc(-n6c(O)nnc6-c6cc(C(C)C)c(O)cc6O)cc5)CC4)CC3)CC2)ccc1N(CC)c1ncc2c(n1)N(S(C)(=O)=O)c1ccccc1C(=O)N2C [Compound 099, 2-((4-(4-(4-((4-(4-(3-(2,4-dihydroxy-5-isopropylphenyl)-5-hydroxy-4H-1,2,4-triazol-4-yl)benzyl)piperazin-1-yl)methyl)piperidine-1-carbonyl)piperidin-1-yl)-2-ethoxyphenyl)(ethyl)amino)-5-methyl-11-(methylsulfonyl)-5,11-dihydro-6H-benzo[e]pyrimido[5,4-b][1,4]diazepin-6-one]	< 100 nM	< 100 nM	> 1000 nM	–	–	–	B (DC50 = 100-1000 nM)	< 100 nM	–	–	–	–
CCOc1cc(N2CCC(C(=O)NCCOCCNC(=O)O[C@H]3CC[C@H](Nc4cc(-n5nc(C(F)(F)F)c6c5CC(C)(C)CC6=O)ccc4C(N)=O)CC3)CC2)ccc1Nc1ncc2c(n1)N(C)c1ccccc1C(=O)N2C [Compound 103, (1R,4R)-4-((2-carbamoyl-5-(6,6-dimethyl-4-oxo-3-(trifluoromethyl)-4,5,6,7-tetrahydro-1H-indazol-1-yl)phenyl)amino)cyclohexyl (2-(2-(1-(4-((5,11-dimethyl-6-oxo-6,11-dihydro-5H-benzo[e]pyrimido[5,4-b][1,4]diazepin-2-yl)amino)-3-ethoxyphenyl)piperidine-4-carboxamido)ethoxy)ethyl)carbamate]	> 1000 nM	> 1000 nM	> 1000 nM	–	–	–	C (DC50 > 1000 nM)	100 to 1000 nM	–	–	–	–
CCOc1cc(N2CCC(C(=O)NCCOCCNC(=O)O[C@H]3CC[C@H](Nc4cc(-n5nc(C(F)(F)F)c6c5CC(C)(C)CC6=O)ccc4C(N)=O)CC3)CC2)ccc1Nc1ncc2c(n1)N(S(C)(=O)=O)c1ccccc1C(=O)N2C [Compound 105, (1R,4R)-4-((2-carbamoyl-5-(6,6-dimethyl-4-oxo-3-(trifluoromethyl)-4,5,6,7-tetrahydro-1H-indazol-1-yl)phenyl)amino)cyclohexyl (2-(2-(1-(3-ethoxy-4-((5-methyl-11-(methylsulfonyl)-6-oxo-6,11-dihydro-5H-benzo[e]pyrimido[5,4-b][1,4]diazepin-2-yl)amino)phenyl)piperidine-4-carboxamido)ethoxy)ethyl)carbamate]	> 1000 nM	> 1000 nM	> 1000 nM	–	–	–	C (DC50 > 1000 nM)	100 to 1000 nM	–	–	–	–
CCOc1cc(N2CCC(C(=O)N3CCC(CN4CCN(Cc5ccc(-n6c(C(=O)NC(C)C(F)(F)F)nnc6-c6cc(CC)c(O)cc6O)cc5)CC4)CC3)CC2)ccc1N(CC)c1ncc2c(n1)N(S(C)(=O)=O)c1ccccc1C(=O)N2C (stereo not shown) [Compound 115, 4-(4-((4-((1-(1-(3-ethoxy-4-(ethyl(5-methyl-11-(methylsulfonyl)-6-oxo-6,11-dihydro-5H-benzo[e]pyrimido[5,4-b][1,4]diazepin-2-yl)amino)phenyl)piperidine-4-carbonyl)piperidin-4-yl)methyl)piperazin-1-yl)methyl)phenyl)-5-(5-ethyl-2,4-dihydroxyphenyl)-N-(1,1,1-trifluoropropan-2-yl)-4H-1,2,4-triazole-3-carboxamide]	100 to 1000 nM	100 to 1000 nM	> 1000 nM	–	–	–	B (DC50 = 100-1000 nM)	< 100 nM	–	–	–	–
CCOc1cc(N2CCC(C(=O)N3CCC(CN4CCN(Cc5ccc(-n6c(O)nnc6-c6cc(C(C)C)c(O)cc6OC)cc5)CC4)CC3)CC2)ccc1Nc1ncc2c(n1)N(S(C)(=O)=O)c1ccccc1C(=O)N2C [Compound 128, 2-((2-ethoxy-4-(4-(4-((4-(4-(3-hydroxy-5-(4-hydroxy-5-isopropyl-2-methoxyphenyl)-4H-1,2,4-triazol-4-yl)benzyl)piperazin-1-yl)methyl)piperidine-1-carbonyl)piperidin-1-yl)phenyl)amino)-5-methyl-11-(methylsulfonyl)-5,11-dihydro-6H-benzo[e]pyrimido[5,4-b][1,4]diazepin-6-one]	> 1000 nM	–	< 100 nM	–	–	–	–	> 1000 nM	–	–	–	> 1000 nM

From patent US20240124460A1, “METHODS AND COMPOSITIONS FOR TARGETED PROTEIN DEGRADATION” (Ranok Therapeutics (Hangzhou) Co. Ltd., priority 2020, published 2024)
